Results taken from paper PMC4108065, “Inflammation and pancreatic cancer: molecular and functional interactions between S100A8, S100A9, NT-S100A8 and TGFβ1” (Cell Communication and Signaling : CCS, 2014).

Columns and labels:
BxPC3 = experiment: XTT cell viability assay, BxPC3; type: cell-based, human; details: 48 hours, TGFβ1 0.02 ng/ml, NT-S100A8 50 nM, S100A8 10 nM, S100A9 10 nM, alone or combined, at least three independent experiments in quadruplicate
Experimental: BxPC3, Capan1, MiaPaCa2, Panc1 and BxPC3-SMAD4+ cells were seeded (2000 cells per well) in 96-well cell culture plates and cultured in complete media for 24 hours. Media were then replaced with fresh cell culture media in absence (control) or in presence of TGFβ1 (0.02 ng/ml) and NT-S100A8 (50 nM), alone or combined or in absence (control) or in presence of TGFβ1 (0.02 ng/ml), S100A8 (10 nM) and S100A9 (10 nM) alone or combined. Cell growth was assessed after 48 hours using the XTT cell viability test (Roche, Milano, Italy). At least three independent experiements, each made in quadruplicate, were run. The results were expressed as percentage with respect to the median Abs450nm of control cells run in the same experimental set.

[1] = tested on: Smad4 silenced MiaPaCa2 IκBα and S6RP phosphorylation; experiment: Signaling western blot in Smad4 silenced MiaPaCa2; type: cell-based, human; details: Smad4-siRNA MiaPaCa2 vs MiaPaCa2, 10 minutes, 0.02 ng/ml TGFβ1, 10 nM S100A8, 50 nM NT-S100A8; for effect of Smad4 silencing on inhibition of NF-κB: IκBα Ser32 western blot; for effect of silenced Smad4 on S6RP phosphorylation: western blot
Experimental: The pancreatic cancer cell lines used were: Panc1 and Suit2, donated by Prof Aldo Scarpa (University of Verona, Italy); BxPC3, from Dr Andrea Galli (University of Florence, Italy); MiaPaCa2, Capan1 and the human embryonic kidney Hek293 cell lines, supplied by the American Type Culture Collection (Manassas, VA, USA). BxPC3, Capan1 and Panc1 were cultured in RPMI (Gibco/BRL, Gaithhersburg, MD, USA) supplemented with 10% (BxPC3 and Panc1) and 20% (Capan1) fetal calf serum (FCS) (Gibco/BRL), 1% L-glutamine (Gibco/BRL) and 0.1% gentamycin (Gibco/BRL). MiaPaCa2 and Hek293 were cultured in DMEM (Gibco/BRL) supplemented with 10% FCS, 2% L-glutamine and 0.1% Gentamycin. BxPC3 cells were transfected with the expression vector pBK-cytomegalovirus (CMV)-SMAD4/DPC4, as previously described. One SMAD4/DPC4-expressing clone (BxPC3-SMAD4+) was used for the experiments. Smad4 silencing of MiaPaCa2 cells was performed as previously described.
Five million cells were seeded in Petri dishes (ø 10 cm) and cultured for 24 hours in their respective complete media prior to starting the experiments. Cells remained non-stimulated (negative control) or were stimulated with 50 mU insulin (positive control) (Insuman Rapid, Sanofi-Aventis, Deutschland, GmbH) for 10 min; in parallel, experimental cells were stimulated with 50 nM NT-S100A8, 0,02 ng/ml TGFβ1 (ProSpec-Tany TechnoGene), 10 nM S100A8 and 10 nM S100A9 alone or combined for 10 min. Following stimulations, Petri dishes were immediately transferred into an ice bath, and the cells were washed twice with cold PBS, re-suspended in 100 μl of cold lysis buffer [20 mM Tris–HCl, pH 7.5, 150 mM NaCl, 1 mM EDTA, 1% Triton-X 100, 50 mM NaF, 10 mM Na4P2O7,1 mM Na3VO4, and 10% protease inhibitor cocktail (Sigma Aldrich SRL, Milano, Italy)]. Lysates were centrifuged for 10 min at 14,000 rpm at 4°C and, in the supernatants, total proteins were measured using the Bio-Rad protein assay (Bio-Rad Laboratories, Milano, Italy). Each experiment was performed at least in triplicate.
For each sample, 40 μg proteins were electrophoresed through 4–12% NuPAGE®NovexBis-Tris SDS–PAGE Gel or 3-8% NuPAGE®NovexTris-Acetate SDS–PAGE Gel (Invitrogen S.R.L., Life Technologies, Monza, Italy) and electrophoretically transferred to Nitrocellulose Membrane (iBlot® Transfer Stack, Invitrogen S.R.L.) by means of the iBlotTMDry Blotting System (Invitrogen S.R.L.). Following incubation for 1 hour in a blocking buffer [5% low fat powder milk re-suspended in PBS-T (PBS with 0.1% Tween-20)], membranes were incubated overnight at 4°C with the primary antibodies [antiphospho IkB-α (Ser^32) (Santa Cruz Biotechnology, Inc., Santa Cruz, CA, USA); anti-phospho-Akt (Ser^473), anti-phospho-Akt (Thr^308), anti-Akt and anti-phospho-S6 Ribosomal Protein (Ser^235/236), anti-cleaved Caspase-3, anti-phospho-Stat3 Tyr^705, anti-β-actin, anti-phospho mTOR (Ser^2448, Ser^2481) (Cell Signaling Technology, Danvers, MA, USA); anti-RAGE (R&D Systems, Minneapolis, MN, USA) ] diluted 1:5000 (β-actin), 1:2000 (mTOR, cleaved Caspase-3, Stat3) or 1:3000 (all the others) in the blocking buffer. The blots, washed three times in PBS-T for 15 min, were incubated with […] anti-rabbit (Cell Signaling Technology) or anti-goat (Sigma Aldrich) secondary antibodies and then washed three times in PBS-T for 15 min and developed with the ECL Advance Western Blot Detection Kit (GE Healthcare Technologies, Milan, Italy).

With “S100A8: inflammatory calcium binding protein S100A8 (ProSpec-Tany TechnoGene)” the “BxPC3 % to Control Mean±SEM” value (BxPC3) was 111.45±5.92 % to Control, the “effect of Smad4 silencing on inhibition of NF-κB” value [1] was “reduced the inhibition of NF-κB” and the “effect of silenced Smad4 on S6RP phosphorylation” value (“effect of silenced Smad4” below) [1] was “markedly reduced S6RP phosphorylation”.
In the case of “NT-S100A8: 14 N-terminal aminoacid peptide of S100A8, isolated from PDAC tissues (MLTELEKALNSIID; UniProt P05109 1-14, looked up, fragment)”, the “effect of silenced Smad4” value [1] is reported as “markedly reduced S6RP phosphorylation”.
“TGFβ1: transforming growth factor beta 1 (ProSpec-Tany TechnoGene)” was tested, and the “BxPC3 % to Control Mean±SEM” value (BxPC3) was 96.85 ± 5.02 % to Control, the “effect of Smad4 silencing on inhibition of NF-κB” value [1] was “reduced the inhibition of NF-κB” and the “effect of silenced Smad4” value [1] was “markedly reduced S6RP phosphorylation”.
“S100A9: inflammatory calcium binding protein S100A9, S100A8 binding partner” was tested, and the “BxPC3 % to Control Mean±SEM” value (BxPC3) was 103.53± 5.18 % to Control.
